According to patent US6727272B1, “Leflunomide analogs for treating rheumatoid arthritis” (Unitech Pharmaceuticals, Inc., priority 2002, dated 2004):
Where two headings read alike, the source gives them in different places.

Test system: Carrageenan-stimulated inflammation on the rear left footpad of the rat
Experiment: Carrageenan-induced footpad edema in rats (Edema Rate E% and Inhibition Rate I%)
Assay type: in vivo, Wistar Albino Rats
Settings: sc, vs control group edema rate, read-out: percentage inhibition rate (I %)
Description: Wistar Albino Rats of 4 to 6 weeks old with weights of 100-150 g were used for the studies.
Weigh 30 mg of λ-carrageenan (Sigma Chemical) powder; add 3 mL of saline to make the 1% carrageenan solution.
Individually weigh 10 mg of each testing compound; add 10 mL of 1% CMC and shake to make the suspension.
In the present invention, Carrageenan was used to stimulate the inflammation on the rear left footpad of the rat. The inflammation on the left footpad of each rat was measured for rats with and without treatment. Treatment includes leflunomide analogs, dexamethasone, ibuprofen, and Malononitrilamide (MNA). Measurements of the inflamation at pre-determined time points were made.
The rats were weighed and divided into three groups: (1) Control Group, (2) Test Group, and (3) Comparison Group. For each compound, 5 rats were used and marked on the tails. Before injecting carrageenan, the volume of each left footpad was measured (V0). Each rat was injected in the back as follows:
(1) Control Group: 1% CMC for Control Group,
(2) Testing Group: testing compound (10 mg/kg each) in 1% CMC, and
(3) Comparison Group: dexamethasone (1.5 mg/kg in 1% CMC), ibuprofen 10 mg/kg in 1% CMC, MNA in 1% CMC.
One hour later, 0.05 mL of 1% carrageenan was injected onto the rear footpad of each rat to initiate the inflammation. Measure the volume of the rear left footpad (Vt) at 0.5, 1, 2, 3, 4, and 5 hours.
The Edema Rate (E%) and the Inhibition Rate (I%) are calculated as follows and the results of the in-vivo studies are summarized in Table 1 and Table 2. [formula]
V0=Volume (mL) of the rear left footpad before the injection of Carrageenan.
Vt=Volume (mL) of the rear left footpad at “t” time after the injection of Carrageenan
Ec=Edema Rate of the, Control Group
Et=Edema Rate of the Testing Group and Comparison Group

Cc1cc(C(=O)Nc2ccc(F)cc2)no1 [Compound 5k, N-(4-Fluorophenyl)-3-carboxamidyl-5-methylisoxazole] showed an inhibition in vivo at 10 mg/kg (1 h, 1 hr) of 46.2%, an inhibition in vivo at 10 mg/kg (2 h, 2 hr) of 17.5% and an inhibition in vivo at 10 mg/kg (3 h, 3 hr) of 38.7%. The inhibition in vivo at 10 mg/kg (4 h, 4 hr) was 43.5% and the inhibition in vivo at 10 mg/kg (5 h, 5 hr) was 43.7%.
COc1cc(NC(=O)c2cc(C)on2)cc(OC)c1OC [Compound 5i, N-(3,4,5-Trimethoxyphenyl)-3-carboxamidyl-5-methylisoxazole] gave an inhibition in vivo at 10 mg/kg (1 h, 1 hr) of 6.7%, an inhibition in vivo at 10 mg/kg (2 h, 2 hr) of 34% and an inhibition in vivo at 10 mg/kg (3 h, 3 hr) of 39.1%. For the same molecule, the inhibition in vivo at 10 mg/kg (4 h, 4 hr) was 42.7% and the inhibition in vivo at 10 mg/kg (5 h, 5 hr) was 42.5%.
Work on Cc1cc(C(=O)Nc2cccc(C(F)(F)F)c2)no1 [Compound 5e, N-(3-Trifluoromethyl)-3-carboxamidyl-5-methylisoxazole] yielded an inhibition in vivo at 10 mg/kg (1 h, 1 hr) of 26%, an inhibition in vivo at 10 mg/kg (2 h, 2 hr) of 41.7% and an inhibition in vivo at 10 mg/kg (3 h, 3 hr) of 40.7%. For the same molecule, the inhibition in vivo at 10 mg/kg (4 h, 4 hr) was 44% and the inhibition in vivo at 10 mg/kg (5 h, 5 hr) was 46.8%.
Molecule Cc1cc(C(=O)Nc2ccccc2Cl)no1 [Compound 5b] has an inhibition in vivo at 10 mg/kg (1 h, 1 hr) of 80.1%, an inhibition in vivo at 10 mg/kg (2 h, 2 hr) of 82.5% and an inhibition in vivo at 10 mg/kg (3 h, 3 hr) of 79.4%. For the same molecule, the inhibition in vivo at 10 mg/kg (4 h, 4 hr) was 79% and the inhibition in vivo at 10 mg/kg (5 h, 5 hr) was 77.7%.
Work on Cc1cc(C(=O)Nc2ccccc2)no1 [Compound 5a, N-(Phenyl)-3-carboxamidyl-5-methylisoxazole] yielded an inhibition in vivo at 10 mg/kg (1 h, 1 hr) of 62.5%, an inhibition in vivo at 10 mg/kg (2 h, 2 hr) of 74.9% and an inhibition in vivo at 10 mg/kg (3 h, 3 hr) of 78.8%. It also gave an inhibition in vivo at 10 mg/kg (4 h, 4 hr) of 78.4% and an inhibition in vivo at 10 mg/kg (5 h, 5 hr) of 44.5%.
Cc1cc(C(=O)Nc2ccc(Cl)cc2)no1 [Compound 5d, N-(4-Chlorophenyl)-3carboxamidyl-5-methyisoxazole] gave an inhibition in vivo at 10 mg/kg (1 h, 1 hr) of 70.2%, an inhibition in vivo at 10 mg/kg (2 h, 2 hr) of 72.8% and an inhibition in vivo at 10 mg/kg (3 h, 3 hr) of 77.6%. It also gave an inhibition in vivo at 10 mg/kg (4 h, 4 hr) of 77.8% and an inhibition in vivo at 10 mg/kg (5 h, 5 hr) of 76%.
Cc1cc(C(=O)Nc2ccc(Cl)cc2Cl)no1 [Compound 5g, N-(2,4-Dichlorophenyl)-3carboxamidyl-5-methylisoxazole] showed an inhibition in vivo at 10 mg/kg (1 h, 1 hr) of 79.3%, an inhibition in vivo at 10 mg/kg (2 h, 2 hr) of 83.1% and an inhibition in vivo at 10 mg/kg (3 h, 3 hr) of 77.4%. The inhibition in vivo at 10 mg/kg (4 h, 4 hr) was 79% and the inhibition in vivo at 10 mg/kg (5 h, 5 hr) was 78%.
For C[C@@H]1C[C@H]2[C@@H]3CCC4=CC(=O)C=C[C@]4(C)[C@@]3(F)[C@@H](O)C[C@]2(C)[C@@]1(O)C(=O)CO [Dexamethasone, reference compound], the inhibition in vivo at 1.5 mg/kg (1 h, 1 hr) was 73.6%, the inhibition in vivo at 1.5 mg/kg (2 h, 2 hr) was 64.5% and the inhibition in vivo at 1.5 mg/kg (3 h, 3 hr) was 65.8%. It also gave an inhibition in vivo at 1.5 mg/kg (4 h, 4 hr) of 66.5% and an inhibition in vivo at 1.5 mg/kg (5 h, 5 hr) of 66.4%.
Cc1cc(C(=O)Nc2ccc(C(F)(F)F)cc2)no1 [Compound 5f, N-(4-Trifluoromethylphenyl)3-carboxamidyl-5-methylisoxazole] gave an inhibition in vivo at 10 mg/kg (1 h, 1 hr) of 46.2%, an inhibition in vivo at 10 mg/kg (2 h, 2 hr) of 53.8% and an inhibition in vivo at 10 mg/kg (3 h, 3 hr) of 54.6%. It also gave an inhibition in vivo at 10 mg/kg (4 h, 4 hr) of 58.4% and an inhibition in vivo at 10 mg/kg (5 h, 5 hr) of 58.3%.
Cc1oncc1C(=O)Nc1ccc(C(F)(F)F)cc1 [Leflunomide, N-(4-trifluoromethylphenyl)-4-carboxamidyl-5-methylisoxazole] gave an inhibition in vivo at 5 mg/kg (1 h, 1 hr) of 3.8%, an inhibition in vivo at 10 mg/kg (1 h, 1 hr) of 28.4% and an inhibition in vivo at 20 mg/kg (1 h, 1 hr) of 45.7%. For the same molecule, the inhibition in vivo at 5 mg/kg (2 h, 2 hr) was 19.5%, the inhibition in vivo at 10 mg/kg (2 h, 2 hr) was 34.3% and the inhibition in vivo at 20 mg/kg (2 h, 2 hr) was 50%. The inhibition in vivo at 5 mg/kg (3 h, 3 hr) was 41%, the inhibition in vivo at 10 mg/kg (3 h, 3 hr) was 55% and the inhibition in vivo at 20 mg/kg (3 h, 3 hr) was 60.4%. For the same molecule, the inhibition in vivo at 5 mg/kg (4 h, 4 hr) was 38.6%, the inhibition in vivo at 10 mg/kg (4 h, 4 hr) was 47.8% and the inhibition in vivo at 20 mg/kg (4 h, 4 hr) was 60.3%. The inhibition in vivo at 5 mg/kg (5 h, 5 hr) was 38.3%, the inhibition in vivo at 10 mg/kg (5 h, 5 hr) was 46% and the inhibition in vivo at 20 mg/kg (5 h, 5 hr) was 57.4%.
COc1ccc(NC(=O)c2cc(C)on2)cc1 [Compound 5h, N-(4-Methoxyphenyl)-3carboxamidyl-5-methylisoxazole] showed an inhibition in vivo at 10 mg/kg (1 h, 1 hr) of 24%, an inhibition in vivo at 10 mg/kg (2 h, 2 hr) of 18.9% and an inhibition in vivo at 10 mg/kg (3 h, 3 hr) of 41.6%. It also gave an inhibition in vivo at 10 mg/kg (4 h, 4 hr) of 44.3% and an inhibition in vivo at 10 mg/kg (5 h, 5 hr) of 43.1%.
Cc1cc(C(=O)Nc2ccc(C(=O)O)cc2)no1 [Compound 5j, 4-[(5-Methylisoxazole-3-carbonyl)-amino]-benzoic acid] showed an inhibition in vivo at 10 mg/kg (1 h, 1 hr) of 50.5%, an inhibition in vivo at 10 mg/kg (2 h, 2 hr) of 46.7% and an inhibition in vivo at 10 mg/kg (3 h, 3 hr) of 56.2%. For the same molecule, the inhibition in vivo at 10 mg/kg (4 h, 4 hr) was 58.3% and the inhibition in vivo at 10 mg/kg (5 h, 5 hr) was 57.4%.
In the case of CC(C)Cc1ccc(C(C)C(=O)O)cc1 (stereo not drawn) [Ibuprofen, reference compound], the inhibition in vivo at 10 mg/kg (1 h, 1 hr) is reported as 9.1%, the inhibition in vivo at 20 mg/kg (1 h, 1 hr) is reported as 20.8% and the inhibition in vivo at 30 mg/kg (1 h, 1 hr) is reported as 65.4%. For the same molecule, the inhibition in vivo at 10 mg/kg (2 h, 2 hr) was 21.6%, the inhibition in vivo at 20 mg/kg (2 h, 2 hr) was 43.2% and the inhibition in vivo at 30 mg/kg (2 h, 2 hr) was 67.8%. The inhibition in vivo at 10 mg/kg (3 h, 3 hr) was 45.9%, the inhibition in vivo at 20 mg/kg (3 h, 3 hr) was 55.7% and the inhibition in vivo at 30 mg/kg (3 h, 3 hr) was 79.7%. For the same molecule, the inhibition in vivo at 10 mg/kg (4 h, 4 hr) was 44.4%, the inhibition in vivo at 20 mg/kg (4 h, 4 hr) was 55.1% and the inhibition in vivo at 30 mg/kg (4 h, 4 hr) was 74.9%. It also gave an inhibition in vivo at 10 mg/kg (5 h, 5 hr) of 38%, an inhibition in vivo at 20 mg/kg (5 h, 5 hr) of 51.6% and an inhibition in vivo at 30 mg/kg (5 h, 5 hr) of 53%.
Cc1cc(C(=O)Nc2cccc(Cl)c2)no1 [Compound 5c, N-(3-Chlorophenyl)-3-carboxamidyl-5-methylisoxazole] was tested, and the inhibition in vivo at 10 mg/kg (1 h, 1 hr) was 64.4%, the inhibition in vivo at 10 mg/kg (2 h, 2 hr) was 55.3% and the inhibition in vivo at 10 mg/kg (3 h, 3 hr) was 60.6%. It also gave an inhibition in vivo at 10 mg/kg (4 h, 4 hr) of 63.8% and an inhibition in vivo at 10 mg/kg (5 h, 5 hr) of 61.1%.
